Laboratory results from article PMC4657727 (Biochemistry, 2013).

T1: A3+B3 (heteromeric CNGA3 + CNGB3) channels (Homo sapiens, UniProt Q16281+Q9NQW8)
T1 sequence (Q16281 1-694): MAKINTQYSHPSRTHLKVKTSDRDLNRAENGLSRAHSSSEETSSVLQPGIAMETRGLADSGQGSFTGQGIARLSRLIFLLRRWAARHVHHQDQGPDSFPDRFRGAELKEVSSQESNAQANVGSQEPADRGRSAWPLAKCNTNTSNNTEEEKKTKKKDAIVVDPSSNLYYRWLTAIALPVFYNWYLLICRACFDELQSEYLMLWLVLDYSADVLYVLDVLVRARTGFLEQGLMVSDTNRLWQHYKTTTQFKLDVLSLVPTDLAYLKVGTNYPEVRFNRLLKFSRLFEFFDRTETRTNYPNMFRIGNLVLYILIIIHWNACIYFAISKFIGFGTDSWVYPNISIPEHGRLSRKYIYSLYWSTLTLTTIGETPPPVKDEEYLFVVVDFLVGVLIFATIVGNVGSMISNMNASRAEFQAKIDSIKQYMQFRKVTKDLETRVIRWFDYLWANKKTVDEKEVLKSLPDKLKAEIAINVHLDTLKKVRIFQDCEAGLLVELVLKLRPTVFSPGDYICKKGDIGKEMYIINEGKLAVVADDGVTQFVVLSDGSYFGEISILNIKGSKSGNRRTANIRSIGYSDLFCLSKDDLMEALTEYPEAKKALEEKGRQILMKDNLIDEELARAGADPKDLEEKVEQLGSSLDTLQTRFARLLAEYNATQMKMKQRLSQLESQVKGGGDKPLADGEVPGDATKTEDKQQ
T1 sequence (Q9NQW8 1-809): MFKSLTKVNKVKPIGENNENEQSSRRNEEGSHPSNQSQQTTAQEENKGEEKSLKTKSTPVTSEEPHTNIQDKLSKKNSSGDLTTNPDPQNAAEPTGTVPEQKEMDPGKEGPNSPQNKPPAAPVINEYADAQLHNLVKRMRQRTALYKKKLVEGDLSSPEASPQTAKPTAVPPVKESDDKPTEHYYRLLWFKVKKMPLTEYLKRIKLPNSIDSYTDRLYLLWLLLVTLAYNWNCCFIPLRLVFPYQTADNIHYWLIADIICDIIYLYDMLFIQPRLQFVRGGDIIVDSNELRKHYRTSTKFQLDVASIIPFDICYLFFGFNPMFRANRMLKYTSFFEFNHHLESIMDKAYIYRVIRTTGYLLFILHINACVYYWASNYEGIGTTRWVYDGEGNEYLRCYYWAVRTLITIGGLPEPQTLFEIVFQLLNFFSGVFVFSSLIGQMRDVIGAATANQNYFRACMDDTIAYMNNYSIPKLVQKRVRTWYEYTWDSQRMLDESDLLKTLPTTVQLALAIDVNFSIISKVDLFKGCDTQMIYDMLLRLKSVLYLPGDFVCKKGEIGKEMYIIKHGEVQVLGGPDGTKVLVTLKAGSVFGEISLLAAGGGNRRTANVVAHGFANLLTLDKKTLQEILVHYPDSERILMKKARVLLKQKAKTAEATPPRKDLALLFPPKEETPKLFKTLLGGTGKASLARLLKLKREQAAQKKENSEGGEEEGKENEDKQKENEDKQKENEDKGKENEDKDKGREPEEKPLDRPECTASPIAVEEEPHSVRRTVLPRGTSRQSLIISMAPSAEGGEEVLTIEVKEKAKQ

T2: A3 (homomeric CNGA3) channels (Homo sapiens, UniProt Q16281)
T2 sequence (Q16281 1-694): T1 sequence (Q16281 1-694)

B1: CNGA3: A3N339Q (protein)
parent chain: T1 sequence (Q16281 1-694)

What was measured:
[1] = biological target: T1, A3+B3 (heteromeric CNGA3 + CNGB3) channels; experiment: inside-out patch clamp, macroscopic current dose-response, Hill fit; format: cell-based
[2] = biological target: T2, A3 (homomeric CNGA3) channels; experiment: as above; format: cell-based
[3] = anti-FLAG immunoblot, intact oocytes exposed to MMPs 1 h; conditions: glycan lost; control: glycosylated form of A3wt subunits

| Molecule | EC50 [1] [µM] | EC50 [2] [µM] | other: proteolytic processing [3] |
| --- | --- | --- | --- |
| Nc1nc2c(ncn2[C@@H]2O[C@@H]3COP(=O)(O)O[C@H]3[C@H]2O)c(=O)[nH]1 [cGMP] | 15.2 ± 1.1 | 5.6 ± 1 | – |
| B1 | – | – | increases |
